Experimental data as given in ChEMBL document CHEMBL1134662, “Selective, high affinity peptide antagonists of alpha-melanotropin action at human melanocortin receptor 4: their synthesis and biological evaluation in vitro” (J Med Chem, 2001).
Peptide text beside a SMILES is read from it.

Assays:
[1] = target: Melanocortin receptor 3 (Homo sapiens, UniProt P41968)
Description: Binding affinity against human melanocortin receptor 3 (hMC3R) (concentration of the peptide at 50% specific binding)

[2] = target: Melanocortin receptor 4 (Homo sapiens, UniProt P32245)
Description: Binding affinity against human melanocortin receptor 4 (hMC4R) (concentration of the peptide at 50% specific binding)

[3] = target: T1, Melanocortin receptor 5 (Homo sapiens, UniProt P33032); test: Increase in intracellular cAMP in CHO cells expressing human melanocortin receptor 5.; type: functional, cell-based
[4] = target: T1, Melanocortin receptor 5
Description: Binding affinity against human melanocortin receptor 5 (hMC5R) (concentration of the peptide at 50% specific binding)

[5] = target: T1, Melanocortin receptor 5; test: Signal transduction efficacy in cAMP assay in the CHO cells expressing human melanocortin receptor 5; type: functional, cell-based

Chain of Melanocortin receptor 4 (P32245 whole entry): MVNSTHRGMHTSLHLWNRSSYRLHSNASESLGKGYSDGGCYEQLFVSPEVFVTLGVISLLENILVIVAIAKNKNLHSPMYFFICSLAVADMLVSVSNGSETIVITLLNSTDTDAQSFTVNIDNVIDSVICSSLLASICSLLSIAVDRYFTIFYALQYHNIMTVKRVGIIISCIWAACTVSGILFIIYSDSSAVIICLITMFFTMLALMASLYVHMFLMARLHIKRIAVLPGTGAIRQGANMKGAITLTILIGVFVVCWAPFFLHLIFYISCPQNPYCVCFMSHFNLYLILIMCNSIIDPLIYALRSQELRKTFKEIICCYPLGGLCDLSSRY
Chain of Melanocortin receptor 3 (P41968 whole entry): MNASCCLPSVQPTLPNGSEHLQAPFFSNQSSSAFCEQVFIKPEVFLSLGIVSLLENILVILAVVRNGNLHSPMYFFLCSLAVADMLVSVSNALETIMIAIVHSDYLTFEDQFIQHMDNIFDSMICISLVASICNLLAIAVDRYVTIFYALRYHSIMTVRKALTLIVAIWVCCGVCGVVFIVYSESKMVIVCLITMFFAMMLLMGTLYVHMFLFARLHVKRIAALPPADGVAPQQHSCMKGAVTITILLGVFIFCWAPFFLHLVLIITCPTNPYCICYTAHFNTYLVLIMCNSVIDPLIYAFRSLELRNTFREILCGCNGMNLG
T1 sequence (P33032 whole entry): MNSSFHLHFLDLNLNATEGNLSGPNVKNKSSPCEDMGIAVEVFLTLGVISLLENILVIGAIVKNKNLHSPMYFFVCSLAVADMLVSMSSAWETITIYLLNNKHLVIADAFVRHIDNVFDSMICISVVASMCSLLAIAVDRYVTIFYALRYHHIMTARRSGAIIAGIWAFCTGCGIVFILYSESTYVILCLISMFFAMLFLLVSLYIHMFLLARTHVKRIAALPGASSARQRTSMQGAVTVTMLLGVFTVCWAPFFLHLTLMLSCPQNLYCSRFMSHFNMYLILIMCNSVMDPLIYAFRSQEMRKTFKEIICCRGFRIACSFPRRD

N=C(N)NCCC[C@@H]1NC(=O)[C@@H](Cc2ccc3ccccc3c2)NC(=O)CCC(=O)NC[C@@H](C(N)=O)NC(=O)[C@H](Cc2c[nH]c3ccccc23)NC1=O
Ki [1]: 1.5 µM
Ki [2]: 0.11 µM
EC50 ([3]; cho): > 5 µM
Ki [4]: 4.8 µM

N=C(N)NCCC[C@@H]1NC(=O)[C@@H](Cc2ccc3ccccc3c2)NC(=O)[C@H](Cc2c[nH]cn2)NCC(=O)CC[C@@H](C(N)=O)NC(=O)[C@H](Cc2c[nH]c3ccccc23)NC1=O
Ki [1]: 2.9 µM
Ki [2]: 0.42 µM
EC50 ([3]; cho): > 5 µM
Ki [4]: 2.4 µM

N=C(N)NCCC[C@@H]1NC(=O)[C@@H](Cc2ccc3ccccc3c2)NC(=O)[C@@H](N)CC(=O)NCCCC[C@@H](C(N)=O)NC(=O)[C@H](Cc2c[nH]c3ccccc23)NC1=O
Ki [1]: 0.42 µM
Ki [2]: 0.004 µM
EC50 [3]: 0.2 µM
Ki [4]: 0.024 µM

N=C(N)NCCC[C@@H]1NC(=O)[C@H](Cc2ccc3ccccc3c2)NC(=O)CCC(=O)NCC[C@H](C(N)=O)NC(=O)[C@@H](Cc2c[nH]c3ccccc23)NC1=O
Activation at 5 µM at 5nM [5]: 13%

N=C(N)NCCC[C@@H]1NC(=O)[C@@H](Cc2ccc3ccccc3c2)NC(=O)[C@H](Cc2cnc[nH]2)NC(=O)[C@@H](N)CC(=O)NCCCC[C@@H](C(N)=O)NC(=O)[C@H](Cc2c[nH]c3ccccc23)NC1=O
Ki [1]: 0.014 µM
Ki [2]: 0.0016 µM
EC50 [3]: 0.018 µM
Ki [4]: 0.018 µM

CCC1CC(=O)N[C@H](Cc2ccc3ccccc3c2)C(=O)N[C@@H](CCCN=C(N)N)C(=O)N[C@@H](Cc2c[nH]c3ccccc23)C(=O)N[C@H](C(N)=O)CCCCNC1=O (stereo in doubt; 18)
Ki [1]: 0.24 µM
Ki [2]: 0.0015 µM
EC50 ([3]; cho): 0.22 µM
Ki [4]: 0.4 µM

N=C(N)NCCC[C@@H]1NC(=O)[C@H](Cc2ccc3ccccc3c2)NC(=O)CCC(=O)NC2CCC(C(N)=O)N2C(=O)[C@@H](Cc2c[nH]c3ccccc23)NC1=O (stereo not given in full)
Ki [1]: 3 µM
Ki [2]: 0.6 µM
Ki [4]: 2.5 µM
Activation at 5 µM at 5nM [5]: 3%

N=C(N)NCCC[C@@H]1NC(=O)[C@@H](Cc2ccc3ccccc3c2)NCC(=O)CC[C@@H](C(N)=O)NC(=O)[C@H](Cc2c[nH]c3ccccc23)NC1=O
Ki [1]: 5.9 µM
Ki [2]: 0.96 µM
Ki [4]: 5 µM

CC(=O)N[C@H]1CSSC[C@@H](C(=O)N2CCC[C@H]2C(=O)N2CCC[C@H]2C(=O)N[C@@H](CCCCN)C(=O)N[C@@H](CC(=O)O)C(N)=O)NC(=O)CNC(=O)[C@H](Cc2c[nH]c3ccccc23)NC(=O)[C@H](CCCN=C(N)N)NC(=O)[C@@H](Cc2ccc(Cl)c(Cl)c2)NC(=O)[C@H](Cc2c[nH]cn2)NC(=O)[C@H](CCC(=O)O)NC1=O
Ki [1]: 0.02 µM
Ki [2]: 0.0022 µM
EC50 [3]: 0.073 µM
Ki [4]: 0.022 µM

N=C(N)NCCC[C@@H]1NC(=O)[C@@H](Cc2ccc3ccccc3c2)NC(=O)[C@H](Cc2c[nH]cn2)NC(=O)CCC(=O)NCCCC[C@@H](C(N)=O)NC(=O)[C@H](Cc2c[nH]c3ccccc23)NC1=O
Ki [1]: 0.047 µM
Ki [2]: 0.00088 µM
EC50 [3]: 0.17 µM
Ki [4]: 0.15 µM

N=C(N)NCCC[C@@H]1NC(=O)[C@@H](Cc2ccc3ccccc3c2)NC(=O)CCC(=O)NCC[C@@H](C(N)=O)NC(=O)[C@H](Cc2c[nH]c3ccccc23)NC1=O
Ki [1]: 3 µM
Ki [2]: 0.058 µM
Ki [4]: 2.7 µM

N=C(N)NCCC[C@H]1NC(=O)[C@@H](Cc2ccc3ccccc3c2)NC(=O)CCC(=O)NCCCC[C@H](C(N)=O)NC(=O)[C@@H](Cc2c[nH]c3ccccc23)NC1=O
Ki [1]: 5.9 µM
Ki [2]: 3.7 µM
Ki [4]: 7 µM
Activation at 5 µM at 5nM [5]: 5%

N=C(N)NCCC[C@@H]1NC(=O)[C@@H](Cc2ccc3ccccc3c2)NC(=O)CCC(=O)NCCCC[C@H](C(N)=O)NC(=O)[C@H](Cc2c[nH]c3ccccc23)NC1=O
Ki [1]: 5.9 µM
Ki [2]: 3.8 µM
Ki [4]: 4.9 µM
Activation at 5 µM at 5nM [5]: 7%

CC(=O)N[C@H]1CSSC[C@@H](C(N)=O)NC(=O)CNC(=O)[C@H](Cc2c[nH]c3ccccc23)NC(=O)[C@H](CCCN=C(N)N)NC(=O)[C@@H](Cc2ccc3ccccc3c2)NC(=O)[C@H](Cc2c[nH]cn2)NC(=O)[C@H](CCC(=O)O)NC1=O
Ki [1]: 0.0026 µM
Ki [2]: 0.00057 µM
EC50 ([3]; cho): 0.00022 µM
Ki [4]: 0.00039 µM

CC(=O)N[C@H]1CC(=O)NCCCC[C@@H](C(N)=O)NC(=O)[C@H](Cc2c[nH]c3ccccc23)NC(=O)[C@H](CCCNC(=N)N)NC(=O)[C@@H](Cc2ccc3ccccc3c2)NC1=O
Ki [1]: 0.19 µM
Ki [2]: 0.0043 µM
EC50 [3]: 1 µM
Ki [4]: 0.72 µM

N=C(N)NCCC[C@@H]1NC(=O)[C@@H](Cc2ccc3ccccc3c2)NC(=O)CCC(=O)NCCCC[C@H](C(N)=O)NC(=O)[C@@H](Cc2c[nH]c3ccccc23)NC1=O
Ki [1]: 5.9 µM
Ki [2]: 1.3 µM
Ki [4]: 4.9 µM
Activation at 5 µM at 5nM [5]: 0%

N=C(N)NCCC[C@@H]1NC(=O)[C@@H](Cc2ccc3ccccc3c2)NC(=O)CCC(=O)NCCC[C@@H](C(N)=O)NC(=O)[C@H](Cc2c[nH]c3ccccc23)NC1=O
Ki [1]: 0.056 µM
Ki [2]: 0.00037 µM
EC50 [3]: 0.3 µM
Ki [4]: 0.13 µM

N=C(N)NCCC[C@@H]1NC(=O)[C@@H](Cc2ccc3ccccc3c2)NC(=O)CCC(=O)NCCCC[C@@H](C(N)=O)NC(=O)[C@H](Cc2c[nH]c3ccccc23)NC1=O
Ki [1]: 0.15 µM
Ki [2]: 0.0005 µM
EC50 [3]: 0.53 µM
Ki [4]: 0.54 µM

CC(=O)N[C@H]1CSSC[C@@H](C(=O)N2CCC[C@H]2C(=O)N2CCC[C@H]2C(=O)N[C@@H](CCCCN)C(=O)N[C@@H](CC(=O)O)C(N)=O)NC(=O)CNC(=O)[C@H](Cc2c[nH]c3ccccc23)NC(=O)[C@H](CCCNC(=N)N)NC(=O)[C@@H](Cc2ccc3ccccc3c2)NC(=O)[C@H](Cc2c[nH]cn2)NC(=O)[C@H](CCC(=O)O)NC1=O (HELM PEPTIDE1{[ac].C.E.H.[O=C([C@@H](Cc1ccc2ccccc2c1)N[*:1])[*:2]].R.W.G.C.P.P.K.D.[am]}$PEPTIDE1,PEPTIDE1,2:R3-9:R3$$$V2.0)
Ki [1]: 0.025 µM
Ki [2]: 0.0015 µM
EC50 [3]: 0.042 µM
Ki [4]: 0.016 µM

N=C(N)NCCC[C@@H]1NC(=O)[C@@H](Cc2ccc3ccccc3c2)NCC(=O)CC[C@H](C(N)=O)NC(=O)[C@@H](Cc2c[nH]c3ccccc23)NC1=O
Inhibition at 10nM [5]: 1%

CCC1CC(=O)N[C@H](Cc2ccc3ccccc3c2)C(=O)N[C@@H](CCCN=C(N)N)C(=O)N[C@@H](Cc2c[nH]c3ccccc23)C(=O)N[C@H](C(N)=O)CCCCNC1=O (stereo in doubt; 17)
Ki [1]: 0.12 µM
Ki [2]: 0.00058 µM
EC50 ([3]; cho): 0.24 µM
Ki [4]: 0.14 µM

N=C(N)NCCC[C@@H]1NC(=O)[C@@H](Cc2ccc3ccccc3c2)NC(=O)[C@H](Cc2c[nH]cn2)NC(=O)CCC(=O)NC[C@@H](C(N)=O)NC(=O)[C@H](Cc2c[nH]c3ccccc23)NC1=O
Ki [1]: 0.029 µM
Ki [2]: 0.00026 µM
EC50 [3]: 0.21 µM
Ki [4]: 0.065 µM
